In patent US20100197584A1, “USE OF CURCUMIN TO BLOCK BRAIN TUMOR FORMATION IN MICE” (Research Foundations of the City University of- New York, priority 2007, published 2010):

Experiments:
[1] = tested on: GL261 (mouse glioma) cells; test: Caspase-3/7 assay in GL261 cells; type: cell-based; details: 20 μM and 50 μM, 48 h (FIG. 4)
Method: Cells. B16F10 (mouse melanoma), GL261 (mouse glioma), HOG (human oligodendroglioma), A549 (human lung cancer), and […] (mouse neuroblastoma) cells were cultured separately in DMEM containing 10% (v/v) fetal bovine serum and 1% (v/v) penicillin-streptomycin (PS) and allowed to grow to 40% confluence in a 96-well plate. Curcumin Treatment. Two hours before drug treatment, the medium in each well was replaced with 200 μl Neurobasal medium supplemented with 2% (v/v) B27 and 1% (v/v) PS (Drug-treatment Medium). A stock solution (40 mM) of curcumin was prepared in sterile dimethyl sulfoxide (DMSO) (Example 1). Through serial dilution of each stock solution in Drug-treatment Medium, the following concentrations were obtained: 20 μM and 50 μM (for caspase 3/7 assays) or 25 μM and 50 μM (for MTT assays). Drug-treatment Medium in each well was aspirated, and a drug solution of each concentration or carrier-containing medium (control) was added to triplicate wells of cells (50 μl/well). […] Additionally, the background absorbance was determined from parallel wells containing only the Drug-treatment Medium plus a particular concentration of the drug (no cells). […] Fluorescence in each well was measured using the FLx 800 plate reader (Bio-Tek Instruments, Winooski, Vt.) set at 485/20 nm excitation and 528/20 nm emission wavelengths and the sensitivity of 70. […]

[2] = tested on: B16F10 mouse melanoma cells; test: Tumor formation in peripheral tissue (B16F10 cells injected into the neck); type: in vivo, C57BL mice
Method: Generation of Tumors. C57BL mice were given food and water ad libitum and subjected to 12 hour dark/12 hour light cycles. To generate tumors in the peripheral tissue, B16F10 mouse melanoma cells (10^4 cells in 10 μl PBS) were injected into the necks of male and female C57BL mice. Curcumin Treatment. The control mice received, aseptically, the carrier (3% DMSO in 200 μl PBS) daily through the tail vein after placing the mouse in a restraining cage without anesthetics. Other mice similarly received […] in 200 μl of PBS containing 3% DMSO daily through the tail vein.

[3] = tested on: normal (non-tumor) brain cells; test: Normal brain cell viability (MTT on brain sections); type: in vivo; details: 200 μl of 667 μM, tail vein, three consecutive days; compared to carrier-injected mice (FIG. 10)
Method: In each experiment, three mice were injected with 200 μl of PBS containing 3% DMSO, and three mice were injected with 200 μl of 667 μM curcumin (as described earlier) through the tail vein on three consecutive days by the method described above. On the fourth day, the mice were perfused with PBS through the heart, and the brains sectioned into 400-μm sections. Similar brain sections were also made from untreated mice which were then treated with 1 mM H2O2 in PBS for one hour, followed by incubation in H2O2-free DTM for three hours. These samples were used as a positive control for cell death.
The sections from each mouse were placed in 400 μl PBS in one well of a 48-well plate (i.e. three wells for three mice) and then treated with 200 μl of MTT (5 mg/ml) per well with gentle mixing at 37° C. for about 2 hours. Subsequently, 800 μl of the lysis buffer was added to each well, and the plate was sealed and incubated overnight at 37° C. with gentle mixing. Three 100-μl portions of the tissue solution obtained were next transferred to three respective wells of a 96-well plate (i.e. three wells per mouse and nine wells for three mice in one group) and absorbance at 570 nm was measured using a 96-well multi scanner auto-reader. Results obtained were normalized to protein levels and then expressed as percent of carrier-treated samples.

[4] = tested on: melanoma cell lines; details: melanoma cell lines (Siwak et al. 2005); cited from earlier work
[5] = tested on: human glioma cells; details: human glioma cells in vitro (Karmakar 2006; Dhandapani 2007); cited from earlier work
[6] = tested on: rat glioma cells; details: rat glioma cells in vitro (Karmakar 2006; Dhandapani 2007); cited from earlier work

## COc1cc(/C=C/C(=O)CC(=O)/C=C/c2ccc(O)c(OC)c2)ccc1O [curcumin]
[1]
  caspase-3/7 activity: increased
[2]; even after the curcumin injection had been discontinued for 18 days, carrier mice died in about a month
  condition of mice after treatment: remained normal indefinitely
[2]; male and female C57BL mice, B16F10 cells in neck, 667 curcumin in 200 μl PBS 3% DMSO daily, tail vein
  outward sign of tumor or lesion: no outward sign of tumor or lesion
[3]
  cell viability in the brain (MTT activity): did not cause suppression of cell viability
[4]
  apoptosis: induces apoptosis
[5]
  apoptosis: triggers apoptosis
[6]
  apoptosis: triggers apoptosis
